How the values were obtained:
Format in all cases: physicochemical
[1] = Drug degradation in DMSO assessed as murexide by UV-Vis spectrophotometry
[2] = Drug degradation in DMSO assessed as 5-aminobarbiturate formation by UV-Vis spectrophotometry
[3] = Drug degradation in DMSO
[4] = Drug degradation in DMSO after 7 days by NMR spectroscopy; settings: 168 h
[5] = Drug degradation in DMSO assessed as 2,6-diamino-5-(2,6-diamino-4-oxopyrimidin-5(4H)-ylideneamino)pyrimidin-4(3H)-one formation after 11 days by UV-Vis spectrophotometry; settings: 264 h
[6] = Drug degradation in DMSO assessed as 2,6,8-triaminopyrimido[5,4-g]pteridin-4(3H)-one formation after 11 days by UV-Vis spectrophotometry; settings: 264 h
[7] = Drug degradation in DMSO assessed as oxidation after two months; settings: 1461 h
[8] = Drug degradation in DMSO assessed as 2,6,8-triaminopyrimido[5,4-g]pteridin-4(3H)-one formation at 10 mM incubated over 2 months by UV-Vis spectrophotometry; settings: 1461 h, 10000 µM
[9] = Drug degradation in DMSO assessed as oxidation after overnight incubation
[10] = Drug degradation in DMSO assessed as 2,6-diamino-5-(2,6-diamino-4-oxopyrimidin-5(4H)-ylideneamino)pyrimidin-4(3H)-one formation at 10 mM incubated over 2 months by UV-Vis spectrophotometry; settings: 1461 h, 10000 µM
[11] = Drug degradation in DMSO assessed as 2,6-diamino-5-(2,6-diamino-4-oxopyrimidin-5(4H)-ylideneamino)pyrimidin-4(3H)-one formation after 1 day by NMR spectroscopy; settings: 24 h
[12] = Drug degradation in alkalised DMSO assessed as 2,6-diamino-5-(2,6-diamino-4-oxopyrimidin-5(4H)-ylideneamino)pyrimidin-4(3H)-one formation
[13] = Drug degradation in DMSO assessed as ammonium cation formation after 2 days by NMR spectroscopy; settings: 48 h
[14] = Drug degradation in alkalised DMSO assessed as 2,6,8-triaminopyrimido[5,4-g]pteridin-4(3H)-one formation after 24 hrs
[15] = Drug degradation in DMSO assessed as 2,6,8-triaminopyrimido[5,4-g]pteridin-4(3H)-one after 87 days by NMR spectroscopy; settings: 2088 h
[16] = Drug degradation in acidified DMSO
[17] = Drug degradation in DMSO assessed as pyrimido[4,5-g]pteridine-2,4,7,9-tetraamine formation by UV-Vis spectrophotometry
[18] = Drug degradation in DMSO assessed as pyrimido[5,4-g]pteridine-2,4,6,8-tetraamine formation by UV-Vis spectrophotometry
[19] = Drug degradation in DMSO assessed as ammonium cation formation by NMR spectroscopy
[20] = Drug degradation in DMSO by UV-Vis spectrophotometry
[21] = Drug degradation in DMSO assessed as methoxy group hydrolysis by NMR spectrophotometry
[22] = Drug degradation in DMSO assessed as oxidation
[23] = Drug degradation in DMSO by NMR spectrophotometry
[24] = Drug degradation in DMSO assessed as bis-alloxazine and pyrimido[4,5-g]pteridine-2,4,7,9(1H,3H,6H,8H)-tetraone formation after 3 months; settings: 2191.5 h
[25] = Drug degradation in DMSO assessed as pyrimido[5,4-g]pteridine-4,6(3H,7H)-dione formation after 2 months; settings: 1461 h
[26] = Drug degradation in DMSO after 2 months by UV-Vis spectrophotometry; settings: 1461 h
[27] = Drug degradation in DMSO assessed as bis-alloxazine and pyrimido[4,5-g]pteridine-2,4,7,9(1H,3H,6H,8H)-tetraone formation

For `Nc1c[nH]c(=O)[nH]c1=O`, the Drug degradation [1] was “Active”, the Drug degradation [2] was “Active” and the Drug degradation [3] was “Active”.

For `Nc1cc(O)nc(N)n1`, the Drug degradation [3] was “Not Active”.

With `Nc1nc(N)c(N)c(O)n1` the Drug degradation [4] was “Active”, the Drug degradation [5] was “Active” and the Drug degradation [6] was “Active”. For the same compound, the Drug degradation [7] was “Active”, the Drug degradation [8] was “Active” and the Drug degradation [9] was “Active”. For the same compound, the Drug degradation [10] was “Active”, the Drug degradation [11] was “Active” and the Drug degradation [12] was “Active”. For the same compound, the Drug degradation [13] was “Active”, the Drug degradation [3] was “Active” and the Drug degradation [14] was “Active”. For the same compound, the Drug degradation [15] was “Active” and the Drug degradation [16] was “Active”.

In the case of `Nc1nc(N)c(N)c(N)n1`, the Drug degradation [17] was “Active”, the Drug degradation [9] was “Active” and the Drug degradation [3] was “Active”. The Drug degradation [18] was “Active”.

With `NC1C(=O)NC(=O)NC1=O` the Drug degradation [1] was “Active”, the Drug degradation [19] was “Active” and the Drug degradation [3] was “Active”.

For `Nc1nc(S)[nH]c(=O)c1N`, the Drug degradation [19] was “Active”, the Drug degradation [20] was “Active” and the Drug degradation [3] was “Active”.

With `COc1nc(N)nc(OC)c1N` the Drug degradation [21] was “Active”, the Drug degradation [3] was “Active” and the Drug degradation [22] was “Active”.

In the case of `Nc1nc(Cl)c(N)c(Cl)n1`, the Drug degradation [20] was “Active”, the Drug degradation [23] was “Active” and the Drug degradation [3] was “Active”. The Drug degradation [22] was “Active”.

With `Nc1c[nH]c(=O)nc1N` the Drug degradation [3] was “Active”, the Drug degradation [24] was “Active” and the Drug degradation [22] was “Active”.

With `Nc1ncnc(O)c1N` the Drug degradation [3] was “Active” and the Drug degradation [25] was “Active”.

For `Nc1ncnc(N)c1N`, the Drug degradation [20] was “Not Active” and the Drug degradation [26] was “Not Active”.

With `Nc1c(Cl)ncnc1Cl` the Drug degradation [22] was “Not Active”.

In the case of `Nc1[nH]c(=O)[nH]c(=O)c1N`, the Drug degradation [27] was “Active” and the Drug degradation [3] was “Active”.
